Data on 10 compounds can be found in ChEMBL document CHEMBL1138574, “Regioselective synthesis and stereochemical structure of anti-tumor active dispiro[3H-indole-3,2'-pyrrolidine-3',3''-piperidine]-2(1H),4''-diones” (2009).

Common to all, as to format: functional
Conditions in all cases: route intraperitoneal

The subject of assay [1] is Rattus norvegicus. Put plainly: Antiinflammatory activity in Wister albino rat assessed as inhibition of carrageenan-induced paw oedema at 50 mg/kg, ip administered 1 hr before carrageenan challenge measured after 4 hrs of induction of inflammation relative to indomethacin. In general terms: Carrageenan injected into the paw causes an acute inflammation.
Assay [2] relates to Rattus norvegicus. Nature of the assay: Antiinflammatory activity in Wister albino rat assessed as inhibition of carrageenan-induced paw oedema at 50 mg/kg, ip administered 1 hr before carrageenan challenge measured after 3 hrs of induction of inflammation relative to control.
The subject of assay [3] is Rattus norvegicus. Put plainly: Antiinflammatory activity in Wister albino rat assessed as inhibition of carrageenan-induced paw oedema at 50 mg/kg, ip administered 1 hr before carrageenan challenge measured after 2 hrs of induction of inflammation relative to control.
Assay [4] deals with Rattus norvegicus. Put plainly: Antiinflammatory activity in Wister albino rat assessed as inhibition of carrageenan-induced paw oedema at 50 mg/kg, ip administered 1 hr before carrageenan challenge measured after 4 hrs of induction of inflammation relative to control.
For assay [5], the system named is Rattus norvegicus. Nature of the assay: Antiinflammatory activity in Wister albino rat assessed as inhibition of carrageenan-induced paw oedema at 50 mg/kg, ip administered 1 hr before carrageenan challenge measured after 1 hr of induction of inflammation relative to control.
Assay [6] has as its system Rattus norvegicus. Nature of the assay: Antiinflammatory activity in Wister albino rat assessed as inhibition of carrageenan-induced paw oedema at 50 mg/kg, ip administered 1 hr before carrageenan challenge measured after 24 hrs of induction of inflammation relative to control.
Assay [7] deals with Rattus norvegicus. Put plainly: Antiinflammatory activity in Wister albino rat assessed as inhibition of carrageenan-induced paw oedema at 10 mg/kg, ip administered 1 hr before carrageenan challenge measured after 3 hrs of induction of inflammation relative to control.
The subject of assay [8] is Rattus norvegicus. Nature of the assay: Antiinflammatory activity in Wister albino rat assessed as inhibition of carrageenan-induced paw oedema at 10 mg/kg, ip administered 1 hr before carrageenan challenge measured after 24 hrs of induction of inflammation relative to control.
Assay [9] concerns Rattus norvegicus. Nature of the assay: Antiinflammatory activity in Wister albino rat assessed as inhibition of carrageenan-induced paw oedema at 10 mg/kg, ip administered 1 hr before carrageenan challenge measured after 2 hrs of induction of inflammation relative to control.
For assay [10], the system named is Rattus norvegicus. Nature of the assay: Antiinflammatory activity in Wister albino rat assessed as inhibition of carrageenan-induced paw oedema at 10 mg/kg, ip administered 1 hr before carrageenan challenge measured after 4 hrs of induction of inflammation relative to control.
Assay [11] relates to Rattus norvegicus. Put plainly: Antiinflammatory activity in Wister albino rat assessed as inhibition of carrageenan-induced paw oedema at 10 mg/kg, ip administered 1 hr before carrageenan challenge measured after 1 hr of induction of inflammation relative to control.

Take `Cc1ccc(/C=C2\CN(C)C[C@@]3(C2=O)[C@@H](c2ccc(C)cc2)CN(C)[C@@]32C(=O)N(C)c3ccccc32)cc1`: the inhibition in vivo (usually the change of the read-out against control, counted positive when it falls) at 50 mg/kg in assay [1] came out at 122%; in assay [2], 65%; in assay [3] it was 62%; in [4] it was 68.8%; in assay [5], 53.5%; in assay [6], 57%.

`Cc1ccc(/C=C2\CN(C)C[C@@]3(C2=O)[C@@H](c2ccc(C)cc2)CN(C)[C@@]32C(=O)Nc3ccccc32)cc1`: the inhibition in vivo at 50 mg/kg in [1] is 89.7%; in assay [2], 50.9%; in assay [3], 52.1%; in assay [4] it was 50.7%; in assay [5] it was 69.2%; in assay [6], 22.1%.

Turning to `CN1C/C(=C\c2ccc(-c3cccs3)cc2)C(=O)[C@]2(C1)[C@@H](c1ccc(-c3cccs3)cc1)CN(C)[C@@]21C(=O)Nc2ccccc21`, the inhibition in vivo at 50 mg/kg in [1] was determined as 126%; in [2], 74.8%; in assay [3], 70.7%; in assay [4] it was 71.4%; in assay [5], 68%; in assay [6], 79.8%.

As for `COc1ccc2c(c1)c(CC(=O)O)c(C)n2C(=O)c1ccc(Cl)cc1` [INDOMETHACIN], the inhibition in vivo at 10 mg/kg in [7] was found to be 61.3%; in assay [8], 57%; in assay [9] it was 70.7%; in assay [10] it was 56.5%; in assay [11] it was 72.9%.

With `CN1C/C(=C\c2ccccc2)C(=O)[C@]2(C1)[C@@H](c1ccccc1)CN(C)[C@@]21C(=O)Nc2ccccc21`, the inhibition in vivo at 50 mg/kg in assay [1] is 126%; in assay [2] it was 71.4%; in [3], 73.3%; in assay [4] it was 70.9%; in assay [5], 77%; in assay [6] it was 65.1%.

On to `CN1C/C(=C\c2ccccc2)C(=O)[C@]2(C1)[C@@H](c1ccccc1)CN(C)[C@@]21C(=O)N(C)c2ccccc21`, for which the inhibition in vivo at 50 mg/kg in [1] is 122%; in assay [2], 75.6%; in assay [3], 70.7%; in assay [4], 68.8%; in assay [5] it was 68%; in assay [6], 26.5%.

With `CN1C/C(=C\c2ccc(F)cc2)C(=O)[C@]2(C1)[C@@H](c1ccc(F)cc1)CN(C)[C@@]21C(=O)Nc2ccccc21`, the inhibition in vivo at 50 mg/kg was 109% in [1]; 70.9% in assay [2]; 78.4% in assay [3]; 61.5% in assay [4]; 80.1% in assay [5]; 57% in assay [6].

Regarding `CN1C/C(=C\c2ccc(Br)cc2)C(=O)[C@]2(C1)[C@@H](c1ccc(Br)cc1)CN(C)[C@@]21C(=O)Nc2ccccc21`, the inhibition in vivo at 50 mg/kg in assay [1] was found to be 118%; in [2], 65.2%; in assay [3], 69.3%; in [4], 66.8%; in [5] it was 77.7%; in assay [6] it was 82.7%.

On to `CN1C/C(=C\c2ccc(Br)cc2)C(=O)[C@]2(C1)[C@@H](c1ccc(Br)cc1)CN(C)[C@@]21C(=O)N(C)c2ccccc21`, for which the inhibition in vivo at 50 mg/kg was 82.8% in assay [1]; 47.6% in assay [2]; 49.1% in assay [3]; 46.8% in assay [4]; 53.5% in assay [5]; 83.5% in assay [6].

`CN1C/C(=C\c2ccc(F)cc2)C(=O)[C@]2(C1)[C@@H](c1ccc(F)cc1)CN(C)[C@@]21C(=O)N(C)c2ccccc21`: the inhibition in vivo at 50 mg/kg came out at 83.5% in assay [1]; 55.8% in [2]; 62% in [3]; 47.2% in [4]; 75.8% in assay [5]; 27.2% in assay [6].
